Source: the OPERA property sets (Mansouri et al. 2018)

Conditions: not given
Work on `Nc1nc(NCC(O)CO)c(Cl)nc1[N+](=O)[O-]` (configuration not stated) yielded a logP of -0.22.
Work on `NS(=O)(=O)c1ccc2c(c1)S(=O)(=O)NC(C(Cl)Cl)N2` (configuration not stated) yielded a logP of 0.51.
Compound `COC(=O)c1c(C)[nH]c(-c2cc(Cl)ccn2)c1C(=O)OC` has a logP of 2.63.
`CCCCCCCOC(=O)c1cc(=O)[nH]c(=O)[nH]1` showed a logP of 2.15.
With `CNC(=O)N1C(=O)CN=C(c2ccccc2)c2cc([N+](=O)[O-])ccc21` the logP was 1.76.
In the case of `CNc1cnn(-c2ccccc2)c(=O)c1Cl`, the logP is reported as 1.19.
`Nc1c(Cl)cccc1Cl` showed a logP of 2.76.
`COC(=O)NC1=NCC(c2cccc(F)c2)N1` (configuration not stated) showed a logP of 1.41.
`CCN(CC)CCC(=O)c1sc(N)nc1C` showed a logP of 1.76.
Work on `Nc1cccc(S(=O)(=O)[O-])c1.[Na+]` yielded a logP of -3.4.
`COC(=O)NC1=NCC(c2ccc(C=O)cc2)N1C` (configuration not stated) showed a logP of 0.74.
For `CC(=O)NC(CC(N)=O)C(N)=O` (configuration not stated), the logP was -2.41.
`CN(Cc1cccc(Br)c1)N=O` gave a logP of 1.65.
With `CCN(CC)C(=O)Nc1ccc(OCC(O)CNC(C)(C)C)c(C(C)=O)c1` (configuration not stated) the logP was 1.92.
Compound `CCCc1ccc(OCC(OC(=O)n2ccnc2)C(C)(C)C)cc1` (configuration not stated) has a logP of 4.73.
Work on `CCc1c(C)nc2n(c1=O)C(C)CCC2` (configuration not stated) yielded a logP of 1.43.
`CS(=O)(=O)OCCC[Se]CCCOS(C)(=O)=O` gave a logP of 0.38.
Compound `CC(O)Cn1cnc2c1c(=O)n(C)c(=O)n2C` (configuration not stated) has a logP of -0.77.
In the case of `N=C(N)NN=Cc1ccc(Cl)c([N+](=O)[O-])c1`, the logP is reported as 0.53.
Work on `CN(Cc1ccccc1)C(=O)C(Cc1ccccc1)NC(=O)C(Cc1cn(C(=O)OC(C)(C)C)c2ccccc12)NC(=O)CC1NC(=O)C2C3CCC(CC3)N2C1=O` (configuration not stated) yielded a logP of 5.33.
`CC(=O)c1ccc2cc(C(C)C(=O)OCC(N)=O)ccc2c1` (configuration not stated) gave a logP of 2.06.
With `CC(CF)NCC(O)COc1cccc2[nH]c3ccccc3c12` (configuration not stated) the logP was 2.81.
Work on `NS(=O)(=O)c1cc2c(cc1C(F)(F)C(F)(F)F)N=CNS2(=O)=O` yielded a logP of 1.05.
For `CC12CCC(OS(=O)(=O)O)CC1CCC1C2CCC2(C)C(C3=CC(=O)OC3)CCC12O` (configuration not stated), the logP was -0.14.
`Cc1ncc([N+](=O)[O-])n1CCOC(N)=O` gave a logP of -0.29.
For `CCC(CC)COC(N)=O`, the logP was 1.98.
For `Cc1cc(C)c(C)c(C)c1`, the logP was 4.1.
Compound `CCCCCCCO` has a logP of 2.62.
With `COc1ccc(-c2nc3ncc(N)cc3[nH]2)c(OC)c1` the logP was 1.62.
`O=c1c2c(nc3ccccn13)CCC2` showed a logP of 1.19.
With `NNC(=O)c1ccc2c(c1)OCO2` the logP was 1.16.
Compound `CCN(CC)CCCN1c2ccccc2Sc2ccc(Cl)cc21` has a logP of 6.46.
`CN1C(=O)C(C)(C2=CCCCC2)C(=O)N=C1O` (configuration not stated) gave a logP of 1.98.
`CCC(C(=O)OCc1ccccc1C)C(CO)Cc1cncn1C` (configuration not stated) showed a logP of 2.42.
For `Cc1cc(OCC(=O)O)ccc1S(C)(=O)=O`, the logP was 0.54.
With `CC1c2nc3ccccc3c(=O)n2CN1CCO` (configuration not stated) the logP was 0.46.
For `NS(=O)(=O)c1cc2c(cc1Cl)NC(C(Cl)(Cl)Cl)NS2(=O)=O` (configuration not stated), the logP was 0.82.
`NC(=O)c1cnc2n(c1=O)CCCC2` showed a logP of -0.38.
`OC[C@@H](O)[C@H]1O[C@@H]2O[C@H](C(Cl)(Cl)Cl)O[C@@H]2[C@H]1O` gave a logP of 1.02.
With `CCOC(=O)NC1=NCC(c2cccc(C)c2C)N1C` (configuration not stated) the logP was 2.57.
`CC1=C(C(=O)O)N2C(=O)C(NC(NC(=O)c3nn(-c4ccccc4)c(=O)[nH]c3=O)c3ccc(O)cc3)C2SC1` (configuration not stated) showed a logP of 1.26.
Work on `CCC(=O)OCC1OC(n2cc(I)c(=O)[nH]c2=O)CC1O` (configuration not stated) yielded a logP of 0.68.
`CNC(=O)CCn1ccc(=O)c(O)c1C` gave a logP of -1.1.
With `CNC12CCCCC1CC(O)c1ccccc12` (configuration not stated) the logP was 1.84.
`Cc1cc(O)ccc1O` showed a logP of 0.91.
Compound `CCCN1Cn2c(nc3ccccc3c2=O)C1C` (configuration not stated) has a logP of 1.4.
`CCc1c(O)c(=O)ccn1CC` showed a logP of 0.25.
Work on `CCNC(=O)[C@@H](NC(=O)CNC(=O)c1ccccc1)C(C)C` yielded a logP of 1.05.
With `CCCCN(C)N=Nc1ccc(C(N)=O)cc1` the logP was 2.46.
Work on `O=C1CC2(CCCC2)C(=O)N1Oc1ccccc1` yielded a logP of 1.77.
`CC1(C)S[C@@H]2[C@H](NC(=O)C3(N)CCCCC3)C(=O)N2[C@H]1C(=O)O` gave a logP of 1.31.
In the case of `CC(C)C1NC(=O)NC1=O` (configuration not stated), the logP is reported as -0.36.
With `O=C1CN=C(c2ccccc2F)c2cc(Cl)ccc2N1CC(F)(F)F` the logP was 3.36.
Compound `Cc1ccc2nccc(=O)n2c1` has a logP of 0.61.
With `Cc1ccc(OCC(OC(=S)n2ccnc2)C(C)(C)C)cc1` (configuration not stated) the logP was 4.66.
For `Nc1cc([N+](=O)[O-])ccc1O`, the logP was 1.26.
With `CCCCCCCCCCCCOC(=O)N(C)SN(C)C(=O)Oc1ccc2c(c1)OCO2` the logP was 7.39.
`Nc1nc(=O)n(C2OC(CO)CC2F)cc1F` (configuration not stated) gave a logP of -0.92.
For `CC(=O)Nc1ccc2c(c1)S(=O)(=O)c1ccc(C)cc1C2=O`, the logP was 2.76.
`COC(=O)NC1=NCC(c2ccc(C(C)C)cc2)N1` (configuration not stated) showed a logP of 2.6.
With `CCc1c(C)nc2cccc(C)n2c1=O` the logP was 1.86.
In the case of `CCOC(=O)C1=C(C)NC(C)=C(C(=O)OCC)C1c1ccccc1/C=C/C(=O)OC(C)(C)C`, the logP is reported as 5.2.
For `CN(Cc1ccccc1)C(=O)C(Cc1ccccc1)NC(=O)C(Cc1cn(C(=O)OCc2ccccc2)c2ccccc12)NC(=O)CC1NC(=O)C2C3CCC(CC3)N2C1=O` (configuration not stated), the logP was 5.66.
Work on `CCCC(CC)C(=O)O` (configuration not stated) yielded a logP of 2.23.
`O=C(O)c1cc([N+](=O)[O-])cc([N+](=O)[O-])c1O` gave a logP of 1.71.
`Nc1nc(=O)c2[nH]c(N)c(Cc3ccsc3)c2[nH]1` showed a logP of 1.08.

Same assay, conditions: pH 7.4
Compound `Cn1c(=O)c2[nH]c(Cl)nc2n(C)c1=O` has a logD of -0.85.
